# From paper PMC12207366, “Protonated Glutamate and Aspartate Side Chains Can Recognize Phosphodiester Groups via Strong and Short Hydrogen Bonds in Biomacromolecular Complexes” (Angewandte Chemie (International Ed. in English), 2025)
# Legend:
# [1] = biological target: T1, PilF159-302 Q190E (Thermus thermophilus, UniProt Q72H73, Q190E); assay: ITC c-di-GMP binding to Q190E mutant, pH series; conditions: Tris, 20 °C
# T1 sequence (Q72H73 159-302 Q190E): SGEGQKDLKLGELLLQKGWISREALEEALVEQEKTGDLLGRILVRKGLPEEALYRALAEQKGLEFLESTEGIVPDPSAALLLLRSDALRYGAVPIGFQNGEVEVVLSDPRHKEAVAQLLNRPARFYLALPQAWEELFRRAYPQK
# Description: (§1) To characterize c-di-GMP binding by PilF159-302, the Q190E and Q218E constructs via isothermal titration calorimetry (ITC) and X-ray crystallography unlabeled c-di-GMP was synthesized using a constitutively active mutant of a diguanylate cyclase from the thermophilic bacterium Thermogata maritima ^[4^4,4^5]. For NMR experiments ^13C,^15N labelled c-di-GMP was synthesized identically using ^13C,^15N labelled GTP as a substrate.
# (§2) c-di-GMP binding capabilities of PilF159-302, its mutant constructs PilF159-302 Q190E and PilF159-302 Q218E at varying pH-values were investigated by isothermal titration calorimetry (ITC) experiments in triplicate. All measurements were conducted at 20 °C using a MicroCal ITC200 (Malvern Panalytical, UK). For PilF159-302 Q190E and PilF159-302 Q218E ITC-measurements were conducted in a pH range from pH 8.5 – 4.0 with the buffering agent adjusted to the respective pH-range. For the pH-range 8.5 – 7.5 a sample buffer of 50 mM Tris, 200 mM NaCl and 1 mM β-Me was used. For pH values 7.0 – 6.0 a sample buffer of 50 mM BisTris, 200 mM NaCl, 1 mM β-Me and for pH 5.5 – 4.0 a sample buffer of 50 mM NaAc, 200 mM NaCl, 1 mM β-Me was used. For reference PilF159-302 was titrated with c-di-GMP at pH 8.5 in 50 mM Tris pH 8.5, 200 mM NaCl, 1 mM β-Me and at pH 4.0 in 50 mM NaAc pH 4.0, 200 mM NaCl, 1 mM β-Me. In order to test whether the buffer reagents have an influence on the measured thermodynamic parameters, cross measurements were performed in the region of the pH transitions. To this end, additional measurements with BisTris at pH 7.5 and 5.5, with Tris at pH 7.0 and with NaAc at pH 6.0 were carried out as singlets. The buffer agents had no influence on measured KD-values and resulted only in small changes of the ΔH values. All protein samples were dialyzed two times against 500 ml of the respective sample buffer (1 L in total) at 4 °C for at least 16 hours per step using a dialysis chamber with a nominal 3.5 kDa molecular weight cutoff (ZelluTrans, ROTH). To prepare the ITC-measurements protein and c-di-GMP sample were adjusted to the respective concentration using the dialysis buffer. Protein and c-di-GMP concentration ranged from 20 to 50 µM (protein) and 200 to 500 µM (c-di-GMP) depending on the c-di-GMP binding capabilities at the different pH-values to optimize precision of the measurements. For pH 8.5 – 7.0 a protein concentration of 50 µM with 500 µM c-di-GMP was used. For pH 6.5 – 5.0 a protein concentration of 30 µM with 300 µM c-di-GMP and for pH 4.5 – 4.0 a protein concentration of 20 µM with 200 µM c-di-GMP was used. The following protocol was utilized for each measurement. To 270 µl protein a total of 40 µl c-di-GMP was titrated in 21 injections with a duration of 4 s in intervals of 180 s with a stirring speed of 750 rpm. The first injection of 0.2 µl c-di-GMP with a duration of 0.4 s was carried out after an initial delay of 120 s, which was followed by 20 injections of 2 µl each with a duration of 4 s. During the measurement, the feedback mode was set to high and the reference power to 11 µcal s^-1. All thermograms were processed using Origin 7.0 (OriginLab) using the one-site binding model.
# [2] = biological target: T2, PilF159-302 WT (Thermus thermophilus, UniProt Q72H73); assay: ITC c-di-GMP binding to wild-type GSPII-B domain; conditions: for -TΔS / Kd / ΔG / ΔH: 20 °C
# T2 sequence (Q72H73 159-302): T1 sequence (Q72H73 159-302 Q190E)
# Description: as §1, §2
# [3] = biological target: T3, PilF159-302 Q218E (Thermus thermophilus, UniProt Q72H73, Q218E); parameters: method as in PMID 39615687; conditions: in vitro, pH 7.5; cited from earlier work
# T3 sequence (Q72H73 159-302 Q218E): T1 sequence (Q72H73 159-302 Q190E)
# [4] = biological target: T1, PilF159-302 Q190E; parameters: method as in PMID 39615687; conditions: in vitro, pH 7.5; cited from earlier work
# [5] = biological target: T3, PilF159-302 Q218E; assay: ITC c-di-GMP binding to Q218E mutant, pH series; conditions: 20 °C
# Description: as §1, §2
structure (smiles),measurement,setting,value
Nc1nc2c(ncn2C2OC3COP(=O)(O)OC4C(COP(=O)(O)OC3C2O)OC(n2cnc3c(=O)[nH]c(N)nc32)C4O)c(=O)[nH]1 (stereo not shown) [c-di-GMP],ΔH,[1]; pH 8.0,-4.87 ± 0.68 kcal/mol
same,-TΔS,[1]; pH 8.5,-2.52 ± 0.20 kcal/mol
same,Kd,[1]; pH 8.5,798 ± 39 nM
same,N,[1]; pH 8.5,0.86 ± 0.09
same,ΔG,[1]; pH 8.5,-8.18 ± 0.03 kcal/mol
same,ΔH,[1]; pH 8.5,-5.66 ± 0.17 kcal/mol
same,"c-di-GMP binding affinity, pH dependence","[2]; ITC, pH 4.0 versus pH 8.5",similar
same,-TΔS,"[2]; Na-Acetate, pH 4.0",-4.81 kcal/mol
same,Kd,"[2]; Na-Acetate, pH 4.0",4 nM
same,ΔG,"[2]; Na-Acetate, pH 4.0",-11.26 kcal/mol
same,ΔH,"[2]; Na-Acetate, pH 4.0",-6.45 kcal/mol
same,-TΔS,"[2]; Tris, pH 8.5",0.63 kcal/mol
same,Kd,"[2]; Tris, pH 8.5",9 nM
same,ΔG,"[2]; Tris, pH 8.5",-10.78 kcal/mol
same,ΔH,"[2]; Tris, pH 8.5",-11.41 kcal/mol
same,c-di-GMP binding affinity relative to WT,[3],significantly reduced affinity
same,c-di-GMP binding affinity relative to WT,[4],significantly reduced affinity
same,-TΔS,"[5]; Bis-Tris, pH 6.0",-2.23 ± 0.80 kcal/mol
same,Kd,"[5]; Bis-Tris, pH 6.0",64 ± 7 nM
same,N,"[5]; Bis-Tris, pH 6.0",1.03 ± 0.23
same,ΔG,"[5]; Bis-Tris, pH 6.0",-9.64 ± 0.06 kcal/mol
same,ΔH,"[5]; Bis-Tris, pH 6.0",-7.42 ± 0.75 kcal/mol
same,-TΔS,"[5]; Bis-Tris, pH 6.5",-1.48 ± 0.23 kcal/mol
same,Kd,"[5]; Bis-Tris, pH 6.5",110 ± 3 nM
same,N,"[5]; Bis-Tris, pH 6.5",1.00 ± 0.27
same,ΔG,"[5]; Bis-Tris, pH 6.5",-9.33 ± 0.02 kcal/mol
same,ΔH,"[5]; Bis-Tris, pH 6.5",-7.86 ± 0.22 kcal/mol
same,-TΔS,"[5]; Bis-Tris, pH 7.0",-2.05 ± 0.07 kcal/mol
same,Kd,"[5]; Bis-Tris, pH 7.0",249 ± 7 nM
same,N,"[5]; Bis-Tris, pH 7.0",0.90 ± 0.16
same,ΔG,"[5]; Bis-Tris, pH 7.0",-8.85 ± 0.02 kcal/mol
same,ΔH,"[5]; Bis-Tris, pH 7.0",-6.80 ± 0.08 kcal/mol
same,Kd,"[5]; Na-Acetate, pH 4.0",23 ± 10 nM
same,N,"[5]; Na-Acetate, pH 4.0",0.84 ± 0.07
same,-TΔS,"[5]; Na-Acetate, pH 4.5",-2.56 ± 0.49 kcal/mol
same,Kd,"[5]; Na-Acetate, pH 4.5",61 ± 7 nM
same,N,"[5]; Na-Acetate, pH 4.5",0.90 ± 0.04
same,ΔG,"[5]; Na-Acetate, pH 4.5",-9.68 ± 0.07 kcal/mol
same,ΔH,"[5]; Na-Acetate, pH 4.5",-7.12 ± 0.44 kcal/mol
same,-TΔS,"[5]; Na-Acetate, pH 5.0",-1.47 ± 0.47 kcal/mol
same,Kd,"[5]; Na-Acetate, pH 5.0",36 ± 8 nM
same,N,"[5]; Na-Acetate, pH 5.0",1.31 ± 0.09
same,ΔG,"[5]; Na-Acetate, pH 5.0",-9.99 ± 0.13 kcal/mol
same,ΔH,"[5]; Na-Acetate, pH 5.0",-8.53 ± 0.44 kcal/mol
same,-TΔS,"[5]; Na-Acetate, pH 5.5",-0.40 ± 1.00 kcal/mol
same,Kd,"[5]; Na-Acetate, pH 5.5",28 ± 10 nM
same,N,"[5]; Na-Acetate, pH 5.5",0.97 ± 0.09
same,ΔG,"[5]; Na-Acetate, pH 5.5",-10.17 ± 0.20 kcal/mol
same,ΔH,"[5]; Na-Acetate, pH 5.5",-9.78 ± 0.92 kcal/mol
same,-TΔS,"[5]; Tris, pH 7.5",-3.22 ± 0.17 kcal/mol
same,Kd,"[5]; Tris, pH 7.5",342 ± 26 nM
same,N,"[5]; Tris, pH 7.5",0.92 ± 0.07
same,ΔG,"[5]; Tris, pH 7.5",-8.67 ± 0.04 kcal/mol
same,ΔH,"[5]; Tris, pH 7.5",-5.45 ± 0.13 kcal/mol
same,-TΔS,"[5]; Tris, pH 8.0",0.99 ± 0.27 kcal/mol
same,Kd,"[5]; Tris, pH 8.0",432 ± 25 nM
same,N,"[5]; Tris, pH 8.0",1.12 ± 0.05
same,ΔG,"[5]; Tris, pH 8.0",-8.53 ± 0.03 kcal/mol
same,ΔH,"[5]; Tris, pH 8.0",-9.52 ± 0.31 kcal/mol
same,-TΔS,"[5]; Tris, pH 8.5",2.15 ± 0.18 kcal/mol
same,Kd,"[5]; Tris, pH 8.5",463 ± 13 nM
same,N,"[5]; Tris, pH 8.5",0.73 ± 0.14
same,ΔG,"[5]; Tris, pH 8.5",-8.49 ± 0.02 kcal/mol
same,ΔH,"[5]; Tris, pH 8.5",-10.65 ± 0.16 kcal/mol
